Assays:
Mus musculus = assay: In vivo efficacy of compound was determined in mouse after intravenous administration; assay type: functional
Endothelin-1 receptor = molecular target: T1, Endothelin-1 receptor (Homo sapiens, UniProt P25101); assay: Inhibitory activity against [125I]ET1 binding to human endothelin A receptor
T1 sequence (P25101 whole entry): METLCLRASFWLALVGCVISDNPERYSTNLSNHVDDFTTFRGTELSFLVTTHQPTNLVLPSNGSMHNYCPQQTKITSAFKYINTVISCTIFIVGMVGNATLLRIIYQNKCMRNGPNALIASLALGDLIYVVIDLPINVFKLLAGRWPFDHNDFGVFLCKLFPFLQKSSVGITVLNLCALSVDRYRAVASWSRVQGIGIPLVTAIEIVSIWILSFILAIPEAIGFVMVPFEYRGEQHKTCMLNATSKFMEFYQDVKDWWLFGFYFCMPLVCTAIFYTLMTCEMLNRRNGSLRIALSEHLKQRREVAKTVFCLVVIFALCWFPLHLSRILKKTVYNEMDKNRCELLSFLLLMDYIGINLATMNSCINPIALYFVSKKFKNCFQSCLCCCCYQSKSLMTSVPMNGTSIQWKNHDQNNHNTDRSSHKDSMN

[1] = Bioavailability in rat (dose 3 mg/kg p.o.); assay type: ADME, organism-based; settings: in vivo, po
Oryctolagus cuniculus = organism: Oryctolagus cuniculus; assay: Antagonistic activity towards endothelin A receptor was evaluated using the rabbit iliac artery in presence of 3% human serum albumin; assay type: functional
[2] = molecular target: T2, Endothelin receptor type B (Homo sapiens, UniProt P24530); assay: Inhibitory activity against [125I]ET1 binding to human endothelin B receptor
T2 sequence (P24530 whole entry): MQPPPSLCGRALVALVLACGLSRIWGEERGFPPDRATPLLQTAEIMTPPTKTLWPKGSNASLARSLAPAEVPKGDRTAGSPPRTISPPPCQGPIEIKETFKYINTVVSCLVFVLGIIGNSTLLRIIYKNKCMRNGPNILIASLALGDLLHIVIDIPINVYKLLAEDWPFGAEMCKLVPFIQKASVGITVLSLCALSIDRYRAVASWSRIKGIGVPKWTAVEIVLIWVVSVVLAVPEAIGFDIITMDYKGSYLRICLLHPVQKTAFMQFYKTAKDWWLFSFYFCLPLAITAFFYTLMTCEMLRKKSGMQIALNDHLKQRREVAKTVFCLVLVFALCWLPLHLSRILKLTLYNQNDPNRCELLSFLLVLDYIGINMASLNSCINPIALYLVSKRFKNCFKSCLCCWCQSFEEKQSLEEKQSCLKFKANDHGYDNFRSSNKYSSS

[3] = Bioavailability in rat (dose 1 mg/kg i.v.); assay type: ADME, organism-based; settings: in vivo, iv

Molecule `COCC(C)Cc1cc(OC)ccc1[C@@H]1c2nc(NC(C)C)ccc2[C@H](c2ccc3c(c2)OCO3)[C@H]1C(=O)O` (stereo in doubt; form 1) has an AD50 (Mus musculus) of 0.039 MPK, an IC50 (Endothelin-1 receptor) of 0.025 nM and a bioavailability [1] of 70%. For the same molecule, the PKB (Oryctolagus cuniculus) was 8.33, the IC50 [2] was 48 nM and the bioavailability [3] was 70%.
